Test results from ChEMBL document CHEMBL1128633, “Synthesis and pharmacokinetics of potent carbamate HIV-1 protease inhibitors containing novel high affinity hydroxyethylamine isosteres” (Bioorg Med Chem Lett, 1995).

Assays:
[1] = molecular target: Human immunodeficiency virus type 1 protease (Human immunodeficiency virus 1, UniProt Q72874); experiment: In vitro inhibition of HIV-1 protease.
[2] = test system: CEM-SS; experiment: Antiviral activity against HIV-1 infected HXB2/CEM-SS cell lines.; type: functional; conditions: Homo sapiens
[3] = Bioavailability in rat (Fisher) (fasted); type: ADME, organism-based; conditions: in vivo
[4] = species: Rattus norvegicus; experiment: (§1) Compound was tested for the duration that the plasma drug concentrations remained above the IC95; type: ADME, organism-based; conditions: in vivo
[5] = Plasma half-life following oral administration in Fisher rats; type: ADME, organism-based; conditions: rat
[6] = Peak plasma level between 0.5 and 1.0 hour in Dawley rats; value ranges from 1021-2551; type: ADME, organism-based; conditions: Sprague-Dawley, rat, read-out: Plasma level
[7] = Cmax value was determined between 15 and 30 minutes post administration in fisher rats; value ranges from 200-500; type: ADME, organism-based; conditions: rat, in vivo
[8] = Plasma half-life following oral administration in fisher rats; type: ADME, organism-based; conditions: rat
[9] = Bioavailability in fasted fisher rats; type: ADME, organism-based; conditions: rat, in vivo
[10] = as §1; type: ADME, cell-free

Structure (SMILES) | IC50 [1] [nM] | IC95 [2] [nM] | further results
CC(C)(C)NC(=O)[C@@H]1C[C@@H]2SCC[C@@H]2CN1C[C@@H](O)[C@H](CSc1ccccc1)NC(=O)O[C@H]1CCS(=O)(=O)C1 | 1.7 | 59 | 
CC(C)[C@@H]1SCC[C@@H]1OC(=O)N[C@@H](Cc1ccccc1)[C@H](O)CN1C[C@H]2CCS[C@H]2C[C@H]1C(=O)NC(C)(C)C | 2.6 | 686 | 
CC(C)(C)NC(=O)[C@@H]1C[C@@H]2CCCC[C@@H]2CN1C[C@@H](O)[C@H](Cc1ccccc1)NC(=O)[C@H](CC(N)=O)NC(=O)c1ccc2ccccc2n1 |  | 21 | 
CC(C)[C@@H]1[C@H](OC(=O)N[C@@H](Cc2ccccc2)[C@H](O)CN2C[C@H]3CCCC[C@H]3C[C@H]2C(=O)NC(C)(C)C)CCS1(=O)=O | 4.3 | 85 | 
CC(C)[C@H]1[C@@H](OC(=O)N[C@@H](Cc2ccccc2)[C@H](O)CN2C[C@H]3CCCC[C@H]3C[C@H]2C(=O)NC(C)(C)C)CCS1(=O)=O | 8.1 | 273 | 
C[C@@H]1[C@H](OC(=O)N[C@@H](Cc2ccccc2)[C@H](O)CN2C[C@H]3CCCC[C@H]3C[C@H]2C(=O)NC(C)(C)C)CCS1(=O)=O | 10 | 171 | 
CC(C)(C)NC(=O)[C@@H]1C[C@@H]2SCC[C@@H]2CN1C[C@@H](O)[C@H](CSc1ccccc1)NC(=O)O[C@@H]1CCS(=O)(=O)C1 | 2 | 59 | 
CC(C)[C@H]1[C@@H](OC(=O)N[C@@H](CSc2ccccc2)[C@H](O)CN2C[C@H]3CCS[C@H]3C[C@H]2C(=O)NC(C)(C)C)CCS1(=O)=O |  | 89 | 
CC(C)[C@@H]1[C@H](OC(=O)N[C@@H](Cc2ccccc2)[C@H](O)CN2C[C@H]3CCS[C@H]3C[C@H]2C(=O)NC(C)(C)C)CCS1(=O)=O | 1.3 | 38 | 
C[C@H]1[C@H](OC(=O)N[C@@H](CSc2ccccc2)[C@H](O)CN2C[C@H]3CCS[C@H]3C[C@H]2C(=O)NC(C)(C)C)CCS1(=O)=O | 1.4 | 44 | 
C[C@H]1OCC[C@H]1OC(=O)N[C@@H](CSc1ccccc1)[C@H](O)CN1C[C@H]2CCS[C@H]2C[C@H]1C(=O)NC(C)(C)C | 3 | 2560 | 
C[C@@H]1[C@@H](OC(=O)N[C@@H](CSc2ccccc2)[C@H](O)CN2C[C@H]3CCS[C@H]3C[C@H]2C(=O)NC(C)(C)C)CCS1(=O)=O | 5.2 | 45 | 
CC(C)[C@H]1[C@@H](OC(=O)N[C@@H](Cc2ccccc2)[C@H](O)CN2C[C@H]3CCS[C@H]3C[C@H]2C(=O)NC(C)(C)C)CCS1(=O)=O | 2.6 | 77 | 
C[C@H]1[C@@H](OC(=O)N[C@@H](CSc2ccccc2)[C@H](O)CN2C[C@H]3CCS[C@H]3C[C@H]2C(=O)NC(C)(C)C)CCS1(=O)=O | 0.4 | 31 | bioavailability [3]: 7.4%; Duration [4]: 6 h; half-life [5]: 1.55 h; Cmax [6]: 1020 ng/mL; Cmax [7]: 200 ng/mL
CC(C)[C@H]1SCC[C@H]1OC(=O)N[C@@H](Cc1ccccc1)[C@H](O)CN1C[C@H]2CCS[C@H]2C[C@H]1C(=O)NC(C)(C)C | 0.26 | 85 | 
CC(C)[C@@H]1[C@H](OC(=O)N[C@@H](CSc2ccccc2)[C@H](O)CN2C[C@H]3CCS[C@H]3C[C@H]2C(=O)NC(C)(C)C)CCS1(=O)=O |  | 9 | bioavailability [3]: 3.5%; Duration [4]: 3 h; half-life [5]: 1.4 h; Cmax [6]: 1020 ng/mL; Cmax [7]: 200 ng/mL
C[C@@H]1[C@H](OC(=O)N[C@@H](CSc2ccccc2)[C@H](O)CN2C[C@H]3CCS[C@H]3C[C@H]2C(=O)NC(C)(C)C)CCS1(=O)=O | 0.75 | 19 | half-life [8]: 2.53 h; bioavailability [9]: 6.3%; Duration [10]: 5 h; Cmax [6]: 1020 ng/mL; Cmax [7]: 200 ng/mL
C[C@@H]1OCC[C@@H]1OC(=O)N[C@@H](CSc1ccccc1)[C@H](O)CN1C[C@H]2CCS[C@H]2C[C@H]1C(=O)NC(C)(C)C | 0.28 | 162 | 
